Experiment: Ability of stabilizing agents to dissolve in the melted PEG/Poloxamer vehicle
Format: physicochemical
Settings: 0.5% w/w of substance mixed with PEG/Poloxamer at 80° C.

| Molecule | Physical state in vehicle | also measured |
| --- | --- | --- |
| Oc1cccc2cccnc12 [8-hydroxychinoline 0.005%, ½SO4, ½H2O, 8-hydroxychinoline] | Not dissolved | – |
| N.N.O=C(O)CC(O)(CC(=O)O)C(=O)O [Citric acid, (NH4)2] | Not dissolved | – |
| N.N.N.O=C(O)CC(O)(CC(=O)O)C(=O)O [Citric acid, (NH4)3] | Not dissolved | – |
| O=C(O)CC(O)(CC(=O)O)C(=O)O [Citric acid, H2O] | Dissolved | Physical state in vehicle (listed as citric acid): dissolved |
| O=C([O-])CC(O)(CC(=O)[O-])C(=O)[O-].[Na+].[Na+].[Na+] [Citric acid, Na3] | Not dissolved | – |
| O=C([O-])CC(O)(CC(=O)O)C(=O)O.[Na+] [Citric acid, Na] | Not dissolved | – |
| O=C(O)[C@H]1OC(O)[C@H](O)[C@@H](O)[C@@H]1O (stereo partly drawn) [D-Glucoronic acid] | Not dissolved | – |
| O=C([O-])CN(CCN(CC(=O)[O-])CC(=O)[O-])CC(=O)[O-].[Ca+2].[Na+].[Na+] [EDTA, Ca, Na2] | Not dissolved | – |
| O=C([O-])CN(CCN(CC(=O)[O-])CC(=O)O)CC(=O)[O-].[Na+].[Na+].[Na+] [EDTA, Na3] | Not dissolved | – |
| O.O.O=C([O-])CN(CCN(CC(=O)[O-])CC(=O)[O-])CC(=O)[O-].[Na+].[Na+].[Na+].[Na+] [EDTA, Na4, 2H2O] | Not dissolved | – |
| O=C(O)CN(CCN(CC(=O)O)CC(=O)O)CC(=O)O [Ethylene di-amine tetra acetic acid] | Not dissolved | – |
| O=C(O)C(=O)O [Oxalic acid, 2H2O] | Dissolved | Physical state in vehicle (listed as oxalic acid): dissolved |
| O=C([O-])C(=O)[O-].[Ca+2] [Oxalic acid, Ca, xH2O] | Not dissolved | – |
| N.N.O=C(O)C(O)C(O)C(=O)O (stereo not shown) [Tartaric acid, (NH4)2] | Not dissolved | – |
| O.O=C([O-])C(O)C(O)C(=O)[O-].O=C([O-])C(O)C(O)C(=O)[O-].[K+].[K+].[K+].[K+] (stereo not shown) [Tartaric acid, K2, ½H2O] | Not dissolved | – |
| O=C([O-])C(O)C(O)C(=O)O.[K+] (stereo not shown) [Tartaric acid, K] | Not dissolved | – |
| O=C(O)C(O)C(O)C(=O)O (stereo not shown) [Tartaric acid] | Dissolved | Physical state in vehicle (listed as tartaric acid): dissolved |
| O.O=C([O-])CN(CCN(CC(=O)[O-])CC(=O)[O-])CCN(CC(=O)[O-])CC(=O)[O-].[Ca+2].[Na+].[Na+].[Na+] [Triethyleneamine pentaacetic acid, Ca, Na3, H2O] | Not dissolved | – |
| EDTA, NH4, H2O | Not dissolved | – |
